Entries after “also recorded” stand apart in the source; their conditions may differ. Where two headings read alike, the source gives them in different places.
Legend:
[1] = Mouse brain tissue binding; format: in vitro ADME; conditions: for fraction unbound: mouse, brain tissue
SERT = target: T1, SERT (Homo sapiens, UniProt P31645); experiment: Serotonin transporter (SERT) uptake inhibition; format: cell-based; conditions: compared with 5-HT1A
T1 construct: expressed in transfected cells; host or cells: HEK293-T
Procedure: The uptake inhibition assay was performed the following day. […] To each well, 30 μl of HBSS containing 20 mM HEPES, 0.1% BSA, and 0.01% ascorbic acid and 15 μl of 3× drug dilutions were added. Cells were then incubated at 37° C. for 45 min. A final concentration of 10 μM FFN246 (Aobious) (Henke et al. 2018) was added to each well, and cells were incubated for an additional hour at 37° C. […] Data was plotted as a function of drug concentration, normalized to % citalopram inhibition, and analyzed using “log(inhibitor) vs. response” in GraphPad Prism 8.0.

5-HT1A N386V = target: T2, 5-HT1A N386V (Homo sapiens, UniProt P08908, N386V); experiment: Gi1 BRET at mutant 5-HT1A N386V; format: cell-based; conditions: Gi1 BRET, 5-HT1A N386V^7.39
T2 construct: expressed in transfected cells; host or cells: HEK293-T
T2 sequence (P08908 1-422 N386V): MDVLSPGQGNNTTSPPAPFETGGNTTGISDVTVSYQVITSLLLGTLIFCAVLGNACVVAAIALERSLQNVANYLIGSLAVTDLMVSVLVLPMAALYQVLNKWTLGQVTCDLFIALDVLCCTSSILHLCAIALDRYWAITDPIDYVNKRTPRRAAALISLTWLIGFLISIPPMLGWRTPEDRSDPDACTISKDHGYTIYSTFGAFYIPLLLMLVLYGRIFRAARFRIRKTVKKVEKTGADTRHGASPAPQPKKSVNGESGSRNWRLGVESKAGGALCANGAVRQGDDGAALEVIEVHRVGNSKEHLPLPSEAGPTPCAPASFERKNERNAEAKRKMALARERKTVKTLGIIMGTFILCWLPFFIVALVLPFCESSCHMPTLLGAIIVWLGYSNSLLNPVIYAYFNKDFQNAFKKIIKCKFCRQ

5-HT2A = 5-HT2A (Homo sapiens, UniProt P28223)
5-HT2A V366N = target: T3, 5-HT2A V366N (Homo sapiens, UniProt P28223, V366N); experiment: Gq BRET at mutant 5-HT2A V366N; format: cell-based; conditions: Gq BRET, 5-HT2A V366N^7.39
T3 construct: expressed in transfected cells; host or cells: HEK293-T

C57BL/6J mice [2] = experiment: Head twitch response (HTR); format: in vivo, mouse; conditions: s.c., presence or absence of 5-HT1A antagonist WAY-100635
Procedure: The head-twitch response evaluation was performed by trained observers who were blinded to both drug and dose. Mice were habituated to the testing room 30 min. The body weight of each mouse was recorded. The HTR was defined as a rapid rotational movement of the head around the longitudinal axis of the animals' body. Mice were administered with vehicle or WAY100,635 (1 mg/kg or 2 mg/kg, sc). Fifteen minutes after the pretreatment injection mice were administered either 4F, 5-MeO-MET (0.1, 0.3, 1 or 3 mg/kg, sc) or 5-MeO-MET (0.3, 1, 3, and 10 mg/kg, sc) and placed in a novel observation cage. An overhead camera (GoPro HERO9 at a 120 Hz, San Mateo, CA, US) recorded their movements. Observers scored HTR from recorded footage for the first 10-min period.

OCT1 = target: T4, OCT1 (Homo sapiens, UniProt O15245); experiment: OCT1 uptake inhibition; format: cell-based; conditions: compared with 5-HT1A
T4 construct: expressed in transfected cells; host or cells: Flp-In T-Rex cell line (ThermoFisher), tetracycline-induced
T4 sequence (O15245 1-554): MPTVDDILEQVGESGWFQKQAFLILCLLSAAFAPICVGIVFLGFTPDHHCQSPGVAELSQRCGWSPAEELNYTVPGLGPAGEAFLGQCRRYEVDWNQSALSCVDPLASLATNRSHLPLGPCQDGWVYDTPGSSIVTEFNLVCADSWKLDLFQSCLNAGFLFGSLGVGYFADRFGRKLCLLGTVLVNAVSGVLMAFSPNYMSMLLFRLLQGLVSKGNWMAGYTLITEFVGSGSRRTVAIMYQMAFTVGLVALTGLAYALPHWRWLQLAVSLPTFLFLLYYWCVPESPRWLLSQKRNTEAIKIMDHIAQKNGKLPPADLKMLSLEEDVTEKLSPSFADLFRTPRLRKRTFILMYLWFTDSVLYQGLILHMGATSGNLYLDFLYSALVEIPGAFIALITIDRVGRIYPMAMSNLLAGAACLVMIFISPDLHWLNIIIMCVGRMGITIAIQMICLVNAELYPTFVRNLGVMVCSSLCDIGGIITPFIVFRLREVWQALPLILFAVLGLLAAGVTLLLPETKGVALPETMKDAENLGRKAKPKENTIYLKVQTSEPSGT
Procedure: Inducible cell lines stably expressing OCT1, OCT2, or PMAT were generated using the Flp-In T-Rex cell line (ThermoFisher) according to manufacturer recommendations. Cells were maintained in DMEM supplemented with 10% FBS, 100 μg/ml hygromycin B (GoldBio), and 10 μg/ml blasticidin (GoldBio). To measure uptake inhibition, cells were seeded into poly-L-lysine coated clear-bottom 384-well plates at a density of 25,000 cells per well in DMEM containing 10% FBS and 2 μg/ml of tetracycline (Sigma) to induce transporter expression. […] Cells were incubated with drug for 30 min at 37° C. Fluorescent substrate was then added to the cells. […] Cells were incubated with respective substrates for an hour at 37° C. OCT2 cells were read directly in a Victor NIVO plate reader using 495 nm excitation and 580 emission filter for 0.1 s. OCT1 and PMAT cells were washed in HBSS supplemented with 20 mM HEPES pH 7.4 before reading in a Victor NIVO plate reader using 435 nm excitation and 480 nm emission filter for 0.1 s.

C57BL/6J mice [3] = experiment: Social interaction test after chronic social defeat stress (CSDS)
[4] = Mouse plasma protein binding; format: in vitro ADME; conditions: for fraction unbound: mouse, plasma
[5] = read-out: % Bound Mean (converted)
[6] = replicate R1, read-out: % Bound R1 (converted)
[7] = replicate R2, read-out: % Bound R2 (converted)

Sequence of 5-HT2A (P28223 whole entry): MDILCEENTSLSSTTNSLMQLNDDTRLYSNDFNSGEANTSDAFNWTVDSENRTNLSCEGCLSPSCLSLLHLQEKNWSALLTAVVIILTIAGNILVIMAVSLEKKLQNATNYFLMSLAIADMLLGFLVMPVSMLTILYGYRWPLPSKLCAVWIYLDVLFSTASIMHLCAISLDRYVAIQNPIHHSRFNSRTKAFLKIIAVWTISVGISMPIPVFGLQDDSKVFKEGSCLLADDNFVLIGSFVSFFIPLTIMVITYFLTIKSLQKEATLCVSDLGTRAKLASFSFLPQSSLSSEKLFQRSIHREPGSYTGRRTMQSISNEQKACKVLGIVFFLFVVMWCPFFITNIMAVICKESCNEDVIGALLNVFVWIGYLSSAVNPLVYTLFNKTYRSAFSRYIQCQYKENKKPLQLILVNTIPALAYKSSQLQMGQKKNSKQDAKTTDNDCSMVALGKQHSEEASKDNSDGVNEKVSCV
T3 sequence (P28223 whole entry V366N): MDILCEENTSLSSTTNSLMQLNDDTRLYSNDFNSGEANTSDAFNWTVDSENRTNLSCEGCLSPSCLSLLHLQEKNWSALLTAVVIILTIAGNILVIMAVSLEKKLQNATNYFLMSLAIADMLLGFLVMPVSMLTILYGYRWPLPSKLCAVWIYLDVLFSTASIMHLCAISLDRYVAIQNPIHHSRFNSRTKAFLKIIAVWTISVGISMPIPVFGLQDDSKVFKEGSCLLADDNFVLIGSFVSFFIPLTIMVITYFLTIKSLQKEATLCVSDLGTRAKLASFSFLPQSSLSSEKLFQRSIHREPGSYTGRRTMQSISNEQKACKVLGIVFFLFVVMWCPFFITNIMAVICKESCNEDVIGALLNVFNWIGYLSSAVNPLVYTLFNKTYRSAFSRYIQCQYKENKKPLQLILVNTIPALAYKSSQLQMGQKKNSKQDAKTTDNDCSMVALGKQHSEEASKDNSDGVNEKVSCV
T1 sequence (P31645 whole entry, species assumed): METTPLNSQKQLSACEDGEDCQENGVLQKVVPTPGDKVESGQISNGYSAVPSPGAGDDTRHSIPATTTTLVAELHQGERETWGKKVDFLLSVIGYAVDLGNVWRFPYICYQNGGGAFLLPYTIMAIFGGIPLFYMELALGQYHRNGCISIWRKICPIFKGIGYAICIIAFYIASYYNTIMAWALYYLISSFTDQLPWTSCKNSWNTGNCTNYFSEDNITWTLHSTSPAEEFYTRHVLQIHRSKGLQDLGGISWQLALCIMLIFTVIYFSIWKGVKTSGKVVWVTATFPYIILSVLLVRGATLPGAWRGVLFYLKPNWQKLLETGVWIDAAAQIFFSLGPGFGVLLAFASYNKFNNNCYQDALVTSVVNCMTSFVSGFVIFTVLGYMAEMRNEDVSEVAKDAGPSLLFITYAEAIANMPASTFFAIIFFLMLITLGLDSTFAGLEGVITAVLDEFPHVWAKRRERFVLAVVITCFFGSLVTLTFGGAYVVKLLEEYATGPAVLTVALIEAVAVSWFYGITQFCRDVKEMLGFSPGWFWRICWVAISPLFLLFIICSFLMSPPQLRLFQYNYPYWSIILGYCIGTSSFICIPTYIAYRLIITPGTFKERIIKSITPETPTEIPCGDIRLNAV

With `COc1ccc2[nH]cc(CCN3CCCC3)c2c1F` [4-F, 5-MeO-PyrT, 4-Fluoro, 5-methoxypyrrolidinyl-tryptamine] the brain tissue binding [1] was 82.5%, the recovery [1] was 88% and the “% Compound remaining at 4 h” value ([1]; 4 h) was 96%. It also gave a fraction unbound [1, 5] of 0.175, a fraction unbound ([1]; read-out: % Unbound) of 0.175 and a fraction unbound ([1]; read-out: fu) of 0.175. The fraction unbound [1, 6] was 0.157, the fraction unbound [1, 7] was 0.193 and the “activity at the serotonin transporter” value (SERT) was “substantially lower activity”. For the same compound, the pEC50 (5-HT1A N386V) was “(8.52,”, the EC50 (5-HT1A N386V; read-out: EC50) was 3 nM and the EC50 (5-HT2A; Gq BRET, 5-HT2A WT) was 300 nM. For the same compound, the pEC50 (5-HT2A; Gq BRET, 5-HT2A WT) was “(6.52,”, the EC50 (5-HT2A; read-out: Gq BRET EC50) was 300 nM and the pEC50 (5-HT2A V366N) was “(6.8,”. The EC50 (5-HT2A V366N; read-out: EC50) was 157 nM, the “head-twitch response (HTR), measure of 5-HT2A-mediated hallucinogenic activity” value (C57BL/6J mice [2]) was “no preclinical signs of hallucinogenic effects; also recorded: did not produce notable HTR” and the “activity at other neurotransmitter transporters (OCT1)” value (OCT1) was “substantially lower activity”. For the same compound, the “number of resilient mice (SI ratio >1)” value (C57BL/6J mice [3]; drug- vs vehicle-treated stressed animals) was “markedly increases the number of resilient mice”, the “general locomotion at the social interaction test” value (C57BL/6J mice [3]; mice, one s.c. administration) was “no effects of the pharmacological intervention on general locomotion; also recorded: no apparent alterations in locomotor activity” and the “amelioration of SI deficits under WAY-100635 co-administration” value (C57BL/6J mice [3]; stressed mice, co-administered 5-HT1A antagonist WAY-100635) was “blocked”. For the same compound, the “corner time (anxiety-like behavior)” value (C57BL/6J mice [3]; stressed mice, one s.c. administration) was “rescued; also recorded: no longer observed”, the “social interaction deficit induced by chronic social defeat stress” value (C57BL/6J mice [3]; stressed mice, one s.c. administration, test 24 hr post drug) was “rescued; also recorded: rescuing the social interaction deficit” and the recovery [4] was 84.7%. The “% Compound remaining at 4 h” value ([4]; 4 h) was 105.6%, the fraction unbound [4, 5] was 0.626 and the fraction unbound ([4]; read-out: % Unbound) was 0.626. It also gave a fraction unbound ([4]; read-out: fu) of 0.626, a fraction unbound [4, 6] of 0.68 and a fraction unbound [4, 7] of 0.573.
